From PMC6044507 (ACS Omega, 2018) come the findings set out here.

The target of assay [1] is T1, human GPR84 (Homo sapiens, UniProt Q9NQS5). The assay is described as follows: cell-based. The assay is classed as cell-based. The note with it: for percent receptor activation at 10 μM, cAMP assay: compound 10 μM; for percent receptor activation at 10 μM, cAMP assay / EC50: forskolin 10 μM; for EC50: CHO cells expressing human GPR84; for Emax: read-out: efficacy (Emax), cAMP assay. A general note: Cyclic AMP is a second messenger, typically raised through Gs and lowered through Gi signalling.
Target sequence in this assay (Q9NQS5 whole entry): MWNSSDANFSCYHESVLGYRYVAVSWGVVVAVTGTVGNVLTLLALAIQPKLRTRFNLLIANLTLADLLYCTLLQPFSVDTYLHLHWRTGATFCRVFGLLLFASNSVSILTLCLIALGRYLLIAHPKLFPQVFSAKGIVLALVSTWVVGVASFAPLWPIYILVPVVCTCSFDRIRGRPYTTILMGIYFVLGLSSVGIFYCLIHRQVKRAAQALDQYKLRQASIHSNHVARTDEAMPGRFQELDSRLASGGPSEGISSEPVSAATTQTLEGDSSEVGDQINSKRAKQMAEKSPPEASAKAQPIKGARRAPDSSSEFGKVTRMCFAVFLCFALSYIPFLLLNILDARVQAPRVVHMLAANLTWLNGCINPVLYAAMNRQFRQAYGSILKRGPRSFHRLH

The target in assay [2] is T1, human GPR84. Put plainly: cell-based. The note with it: EC50 ± SEM, β-arrestin assay, CHO cells expressing human GPR84.
Target sequence in this assay (Q9NQS5 whole entry): as above
Target sequence in this assay (P32121 whole entry partner): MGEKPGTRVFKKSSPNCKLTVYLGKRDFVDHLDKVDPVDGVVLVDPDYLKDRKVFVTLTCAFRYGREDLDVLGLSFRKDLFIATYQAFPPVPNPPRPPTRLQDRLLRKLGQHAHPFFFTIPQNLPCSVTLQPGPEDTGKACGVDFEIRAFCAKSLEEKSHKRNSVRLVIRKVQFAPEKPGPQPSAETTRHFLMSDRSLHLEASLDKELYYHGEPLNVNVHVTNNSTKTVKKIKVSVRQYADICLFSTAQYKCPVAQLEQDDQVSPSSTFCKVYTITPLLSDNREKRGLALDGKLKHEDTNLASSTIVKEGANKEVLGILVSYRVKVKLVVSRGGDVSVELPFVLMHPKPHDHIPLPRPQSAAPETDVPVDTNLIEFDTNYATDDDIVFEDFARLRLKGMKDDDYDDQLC

Consider `CCCCC(CC)CNc1cc(=O)[nH]c(=O)[nH]1` (racemic) [Compound 24, N^6-(R,S)-(2-ethyl)hexyluracil], for which, in assay [1], the “agonistic activity at GPR84 in cAMP assay, in words” value (“agonistic activity at GPR84” for short) is “abolished activity” and the “percent receptor activation at 10 μM, cAMP assay” value (shortened to “percent receptor activation”) is 14%. The like results for `CCNc1cc(=O)[nH]c(=O)[nH]1` [Compound 13] were, in that order, “inactive” and 15%. The like results for `CCCNc1cc(=O)[nH]c(=O)[nH]1` [Compound 14] were, in that order, “inactive” and −9%. With `CC(C)CNc1cc(=O)[nH]c(=O)[nH]1` [Compound 15], the “percent receptor activation” value in assay [1] came out at 11%. For `CC(C)(C)CNc1cc(=O)[nH]c(=O)[nH]1` [Compound 16], the “percent receptor activation” value in assay [1] amounted to 4%.

With `CC(C)CCNc1cc(=O)[nH]c(=O)[nH]1` [Compound 17], the “percent receptor activation” value in assay [1] is reported as 14%. The same measure, in the same setting: the value for `CC(C)(C)CCNc1cc(=O)[nH]c(=O)[nH]1` [Compound 18] was 18%. The EC50 is the concentration that produces a half-maximal response. In general, Emax refers to the size of the effect at its maximum, as opposed to the concentration needed. Consider `CCCCCNc1cc(=O)[nH]c(=O)[nH]1` [Compound 19, 6-Pentylamino-2,4(1H,3H)-pyrimidinedione], for which the EC50 was 460 ± 130 nM in assay [1] (EC50 ± SEM, cAMP assay) and 4800 ± 1300 nM in assay [2]. The Emax in assay [1] is 106%. As to `CCCCCCCNc1cc(=O)[nH]c(=O)[nH]1` [Compound 21, 6-Heptylamino-2,4(1H,3H)-pyrimidinedione], the EC50 in assay [1] (EC50 ± SEM, cAMP assay) worked out at 12 ± 6 nM. In assay [1], the Emax is 113%.

As to `CCCCCCCCCCNc1cc(=O)[nH]c(=O)[nH]1` [Compound 23, 6-Decylamino-2,4(1H,3H)-pyrimidinedione], the maximum response (Emax) in assay [1] is 109%. Regarding `CC(C)CCCCCNc1cc(=O)[nH]c(=O)[nH]1` [Compound 25], in assay [1] (EC50 ± SEM, cAMP assay), the EC50 was determined as 5900 ± 2600 nM. Also, in assay [1], the Emax is 99%. The compound `CSCCCNc1cc(=O)[nH]c(=O)[nH]1` [Compound 26, N^6-Methylthiopropyluracil] came in with an EC50 in assay [1] (EC50 ± SEM, cAMP assay) of 23000 ± 3000 nM. Also, the Emax in assay [1] was 100%. In the case of `O=c1cc(NCCCCCCO)[nH]c(=O)[nH]1` [Compound 27], in assay [1], the “percent receptor activation” value is listed as 51 ± 8%. In the case of `O=c1cc(NCCCCCCCO)[nH]c(=O)[nH]1` [Compound 28, 6-(7-Hydroxyheptylamino)-2,4(1H,3H)-pyrimidinedione], the EC50 in assay [1] (EC50, cAMP assay) was 1980 nM; in assay [2], 2100 ± 600 nM. Further, the Emax in assay [1] is 105%.

`O=C(O)CCCCCNc1cc(=O)[nH]c(=O)[nH]1` [Compound 29]: in assay [1], the “percent receptor activation” value is given as 25%.

As to `O=C(O)CCCCCCCNc1cc(=O)[nH]c(=O)[nH]1` [Compound 30], the “percent receptor activation” value in assay [1] turned out to be 13%. `CCCCCCCCCNc1cc(=O)n(C)c(=O)[nH]1` [Compound 32, 6-Nonylamino-3-methyl-2,4(1H,3H)-pyrimidinedione]: the EC50 in assay [1] (EC50 ± SEM, cAMP assay) stood at 2000 ± 500 nM. The Emax in assay [1] was 74%. Consider `CCCCCCNc1cc(=O)[nH]c(=O)n1C` [Compound 34], for which the “percent receptor activation” value in assay [1] is on record as 32%. The same measure, in the same setting: the value for `CCCCCCCCNc1cc(=O)[nH]c(=O)n1C` [Compound 35] was 34%. In the case of `CCCCCCCCNc1cc(=O)n(C)c(=O)n1C` [Compound 36], in assay [1], the “agonistic activity at GPR84” value is “virtually abolished potency” and the “percent receptor activation” value was 25%.

In assay [1] (EC50 ± SEM, cAMP assay), `CCCCCCN(C)c1cc(=O)[nH]c(=O)[nH]1` [Compound 37, 6-(N-Methylhexylamino)-2,4(1H,3H)-pyrimidinedione] displayed an EC50 of 110 ± 40 nM. Also, the Emax in assay [1] is 106%. For `CCCCCCCCN(C)c1cc(=O)[nH]c(=O)[nH]1` [Compound 38, 6-(N-Methyloctylamino)-2,4(1H,3H)-pyrimidinedione], the Emax in assay [1] was 107%. Further, the EC50 in assay [2] was 640 ± 20 nM.

`CCCCCCCCNc1c[nH]c(=O)[nH]c1=O` [Compound 39]: in assay [1], the “agonistic activity at GPR84” value is “completely inactive” and the “percent receptor activation” value worked out at 6%. For `O=c1cc(NCc2ccccc2)[nH]c(=O)[nH]1` [Compound 40] the same measures were “inactive” and 12%. The like results for `O=c1cc(NCc2cccc3ccccc23)[nH]c(=O)[nH]1` [Compound 41] were, in that order, “inactive” and 23%.

`O=c1cc(NCCCc2ccccc2)[nH]c(=O)[nH]1` [Compound 43, 6-(3-Phenylpropylamino)-2,4(1H,3H)-pyrimidinedione] had an EC50 in assay [1] (EC50 ± SEM, cAMP assay) of 1700 ± 600 nM. Besides, in assay [1], the Emax was 120%. Take `Oc1cc(NCCCCc2ccccc2)nc(O)n1` [Compound 44, 6-(4-Phenylbutylamino)-2,4(1H,3H)-pyrimidinedione]: in assay [1] (EC50 ± SEM, cAMP assay), the EC50 is 24 ± 10 nM. The Emax in assay [1] is 108%. As for `Cc1ccc(CCNc2cc(=O)[nH]c(=O)[nH]2)cc1` [Compound 45, 6-(p-Methylphenylethylamino)-2,4(1H,3H)-pyrimidinedione], the EC50 in assay [1] (EC50 ± SEM, cAMP assay) came to 13 ± 1 nM; in assay [2] it was 320 ± 150 nM. Moreover, the Emax in assay [1] is 114%. For `O=c1cc(NCCc2ccc(F)cc2)[nH]c(=O)[nH]1` [Compound 46, 6-(p-Fluorophenylethylamino)-2,4(1H,3H)-pyrimidinedione] the same measures were 65 ± 14 nM, 2000 ± 800 nM and 111%. In the case of `COc1ccc(CCNc2cc(=O)[nH]c(=O)[nH]2)cc1` [Compound 50, 6-(p-Methoxyphenylethylamino)-2,4(1H,3H)-pyrimidinedione], the EC50 in assay [1] (EC50 ± SEM, cAMP assay) is 57 ± 21 nM; in assay [2], 760 ± 370 nM. Besides, in assay [1], the Emax was 111%. `Cc1cccc(CCNc2cc(=O)[nH]c(=O)[nH]2)c1` [Compound 52, 6-(m-Methylphenylethylamino)-2,4(1H,3H)-pyrimidinedione]: the EC50 is 79 ± 25 nM in assay [1] (EC50 ± SEM, cAMP assay) and 780 ± 220 nM in assay [2]. In addition, the Emax in assay [1] was 134%. With `O=c1cc(NCCc2cccc(F)c2)[nH]c(=O)[nH]1` [Compound 53, 6-(m-Fluorophenylethylamino)-2,4(1H,3H)-pyrimidinedione], in assay [1], the Emax is 136%. Take `O=c1cc(NCCc2cccc(Cl)c2)[nH]c(=O)[nH]1` [Compound 54, 6-(m-Chlorophenylethylamino)-2,4(1H,3H)-pyrimidinedione]: the EC50 stood at 130 ± 10 nM in assay [1] (EC50 ± SEM, cAMP assay) and 300 ± 100 nM in assay [2]. Also, in assay [1], the Emax was 125%. For `O=c1cc(NCCc2cccc(Br)c2)[nH]c(=O)[nH]1` [Compound 55, 6-(m-Bromophenylethylamino)-2,4(1H,3H)-pyrimidinedione] the same measures were 64 ± 5 nM, 190 ± 30 nM and 147%. In turn, `Cc1ccccc1CCNc1cc(=O)[nH]c(=O)[nH]1` [Compound 56, 6-(o-Methylphenylethylamino)-2,4(1H,3H)-pyrimidinedione] registered an EC50 in assay [1] (EC50 ± SEM, cAMP assay) of 3200 ± 100 nM. Moreover, the Emax in assay [1] was 96%. As for `O=c1cc(NCCc2ccccc2Cl)[nH]c(=O)[nH]1` [Compound 58, 6-(o-Chlorophenylethylamino)-2,4(1H,3H)-pyrimidinedione], the EC50 came to 100 ± 20 nM in assay [1] (EC50 ± SEM, cAMP assay) and 1300 ± 100 nM in assay [2]. Also, in assay [1], the Emax was 122%. On to `O=c1cc(NCCc2ccccc2Br)[nH]c(=O)[nH]1` [Compound 59], for which the “percent receptor activation” value in assay [1] is 19%. Regarding `O=c1cc(NCCc2ccc(Cl)cc2Cl)[nH]c(=O)[nH]1` [Compound 61, 6-(o,p-Dichlorophenethylamino)-2,4(1H,3H)-pyrimidinedione], the EC50 in assay [1] (EC50 ± SEM, cAMP assay) is 44 ± 4 nM; in assay [2], 82 ± 35 nM. Besides, in assay [1], the Emax was 113%. Turning to `O=c1cc(NCCc2cccs2)[nH]c(=O)[nH]1` [Compound 63, 6-(Thiophen-2-yl)ethylamino-2,4(1H,3H)-pyrimidinedione], the Emax in assay [1] was 112%. As for `O=c1cc(NCCCOc2ccccc2)[nH]c(=O)[nH]1` [Compound 65, 6-(3-Phenoxypropylamino)-2,4(1H,3H)-pyrimidinedione], the 50% effective concentration (EC50) in assay [1] (EC50 ± SEM, cAMP assay) was found to be 73 ± 5 nM. Moreover, in assay [1], the Emax was 107%. Take `O=c1cc(N2CCC(c3ccccc3)CC2)[nH]c(=O)[nH]1` [Compound 66]: in assay [1], the “agonistic activity at GPR84” value was “inactive” and the “percent receptor activation” value worked out at 13%. In assay [1] (EC50 ± SEM, cAMP assay), `COc1ccccc1N1CCN(c2cc(=O)[nH]c(=O)[nH]2)CC1` [Compound 69] showed an EC50 of 38 ± 7 nM. For the same compound, in assay [1], the maximal response (Emax) is 53%. With `O=c1cc(N2CCN(Cc3cccc4ccccc34)CC2)[nH]c(=O)[nH]1` [Compound 71, 6-[4-(1-Naphthylmethyl)-1-piperazinyl]-2,4(1H,3H)-pyrimidinedione], the EC50 in assay [1] (EC50 ± SEM, cAMP assay) stood at 150 ± 40 nM. Further, in assay [1], the Emax was 137%. In assay [1] (EC50 ± SEM, cAMP assay), `CCCCCCNc1[nH]c(=O)[nH]c(=O)c1Br` [Compound 72] yielded an EC50 of 7400 ± 1600 nM. Besides, in assay [1], the Emax is 123%. The like results for `CCCCCCCCNc1[nH]c(=O)[nH]c(=O)c1Br` [Compound 73, 5-Bromo-6-octylamino-2,4(1H,3H)-pyrimidinedione] were, in that order, 2000 ± 600 nM and 114%. As to `O=c1[nH]c(NCCCc2ccccc2)c(Br)c(=O)[nH]1` [Compound 75], the “percent receptor activation” value in assay [1] is 15%. `CCCCCCNc1[nH]c(=O)[nH]c(=O)c1N=O` [Compound 76] showed an EC50 in assay [1] (EC50 ± SEM, cAMP assay) of 7700 ± 500 nM. Further, the Emax in assay [1] was 120%. For `CCCCCCCNc1[nH]c(=O)[nH]c(=O)c1N=O` [Compound 77, 6-Heptylamino-5-nitroso-2,4(1H,3H)-pyrimidinedione] the same measures were 500 ± 50 nM and 104%. `O=Nc1c(NCCc2ccccc2)[nH]c(=O)[nH]c1=O` [Compound 79]: the “percent receptor activation” value in assay [1] is on record as 32%.

`COc1ccccc1N1CCN(CCCNc2cc(=O)n(C)c(=O)n2C)CC1` [urapidil, reference compound]: the “percent receptor activation” value in assay [1] is 7%.
